Patent publication US20260256763A1, “Aromatic Amide Derivative, And Preparation Method Therefor And Use Thereof” (Zhejiang Hisun Pharmaceutical Co., Ltd., priority 2023, published 2026)

Columns and labels:
[1] = Pharmacokinetic testing in mice; format: in vivo; settings: male, mouse, ICR mice, plasma
Protocol: ICR mice were taken as test animals, and intragastrically administered with a control compound AMG650 and compounds 1, 18 and 29 of the present invention, and then drug concentrations in plasma at different moments were determined by an LC/MS/MS method, so as to study pharmacokinetic characteristics of the compounds of the present invention in the mice.
Control compound AMG650, and Compounds 1, 18 and 29.
ICR mice, male, 27.3-30.3 g, purchased from Vital River Laboratory Animal Technology Co., Ltd.
A proper amount of to-be-tested compound was weighed, proper amounts of DMA (N,N-dimethylacetamide), CrEL (polyoxyethylene 35 castor oil) and 5% GS (5% glucose injection) were added in sequence, and the obtained system was evenly mixed by ultrasonic vortex to prepare a 1 mg/mL preparation, wherein DMA, CrEL and 5% GS=10:10:80 (v:v:v).
ICR mice in each to-be-tested compound injection group (9 mice in each group) were fasted overnight and then intragastrically administered with the compound (PO, an administration dosage of the compound was 10 mg/kg and an administration volume of the compound was 10 mL/kg), and were fed 4 hours after administration.
0.25 hours, 0.5 hours, 1 hour, 2 hours, 4 hours, 8 hours, 10 hours and 24 hours before and after administration, about […] of blood was collected through an orbit, and a complete blood sample was placed in an EDTA-K2-containing anticoagulation tube. The collected blood sample was placed on ice, and plasma was centrifugally separated (centrifugation conditions: 1500 g, 10 minutes). The collected plasma was stored at −40~−20° C. before analysis.
A content of the to-be-tested compound in the plasma of the mice after intragastric administration was determined by LC-MS/MS.

[2] = biological target: T1, recombinant human KIF18A (Homo sapiens, UniProt Q8NI77); assay: Inhibition on KIF18A enzyme activity (ADP-Glo); format: biochemical; settings: recombinant human KIF18A 100 nM, ATP 60 μM
T1 construct: purchased GenScript
Protocol: Inhibition degrees of the compounds of the present invention on recombinant human KIF18A enzyme activity in vitro were determined by the following method. An ADP-Glo™ Kinase Assay kit (article number V9102) from Promega Company was used in this method. Detailed experimental operation can be referred to the instruction of the kit.
The reaction was carried out in a 384-well microplate. The test compound and the recombinant human KIF18A protein (final concentration of 100 nM, entrusted to GenScript for expression) were added into the wells and incubated at room temperature for 20 minutes, and subsequently, ATP solution (component V915A from the ADP-Glo™ Kinase Assay kit, final concentration of 60 μM) was added to the reaction solution and the obtained system was incubated at room temperature for 20 minutes. Subsequently, 5 μL of ADP-Glo Reagent was added to the reaction system and the obtained system was incubated at room temperature for 50 minutes. Then, 10 μL of Kinase Detection Reagent was added to the reaction system, and the obtained system was incubated at room temperature for 30 minutes. After the incubation was ended, a chemiluminiscence intensity value of each well was determined by a microplate reader in a Luminescence mode.

[3] = test system: HT-29 cells; assay: Inhibition on HT-29 cell proliferation (CellTiter-Glo); format: cell-based; settings: Homo sapiens, HT-29 cells (TP53 R273H mutation), 120 hours
Protocol: Influences of the compounds of the present invention on HT-29 cell proliferation were determined by the following method. HT-29 cells (containing TP53 R273H mutation) were purchased from the Cell Bank of Shanghai Institute of Biochemistry and Cell Biology, Chinese Academy of Sciences, and cultured in a McCOY's 5A culture medium containing 10% fetal bovine serum, 100 U penicillin and 100 μg/mL streptomycin. A cell viability was determined by a CellTiter-Glo® Luminescent Cell Viability Assay kit (Promega, article number G7573).
An experimental method was operated according to steps in the instruction of the kit, which was briefly described as follows: a test compound was dissolved in DMSO first to prepare a 10 mM stock solution, then the stock solution was diluted with the above McCOY's 5A culture medium to prepare a test sample, and a final concentration of the compound was in a range of 1000 nM-0.015 nM. Cells in a logarithmic growth phase were inoculated into a 96-well cell culture plate at a density of 1000 cells per well, cultured in a 5% CO2 incubator at 37° C. overnight, and then the test compound was added to continuously culture for 120 hours. After the culture was ended, 50 µL of CellTiter-Glo detection solution was added to each well, the plates were shaken for 5 minutes, and then allowed to stand for 10 minutes, and subsequently, a luminous value of each well of sample was read by a microplate reader in a Luminescence mode. By comparing with a numerical value of a control group (0.3% DMSO), a percentage inhibition rate of the compound at each concentration was calculated, and then nonlinear regression analysis was carried out based on concentration logarithm-inhibition rate of the compound in GraphPad Prism 5 software, so as to obtain an IC50 value of the compound in inhibition on cell proliferation, which are shown in Table 2.

T1 sequence (Q8NI77 whole entry): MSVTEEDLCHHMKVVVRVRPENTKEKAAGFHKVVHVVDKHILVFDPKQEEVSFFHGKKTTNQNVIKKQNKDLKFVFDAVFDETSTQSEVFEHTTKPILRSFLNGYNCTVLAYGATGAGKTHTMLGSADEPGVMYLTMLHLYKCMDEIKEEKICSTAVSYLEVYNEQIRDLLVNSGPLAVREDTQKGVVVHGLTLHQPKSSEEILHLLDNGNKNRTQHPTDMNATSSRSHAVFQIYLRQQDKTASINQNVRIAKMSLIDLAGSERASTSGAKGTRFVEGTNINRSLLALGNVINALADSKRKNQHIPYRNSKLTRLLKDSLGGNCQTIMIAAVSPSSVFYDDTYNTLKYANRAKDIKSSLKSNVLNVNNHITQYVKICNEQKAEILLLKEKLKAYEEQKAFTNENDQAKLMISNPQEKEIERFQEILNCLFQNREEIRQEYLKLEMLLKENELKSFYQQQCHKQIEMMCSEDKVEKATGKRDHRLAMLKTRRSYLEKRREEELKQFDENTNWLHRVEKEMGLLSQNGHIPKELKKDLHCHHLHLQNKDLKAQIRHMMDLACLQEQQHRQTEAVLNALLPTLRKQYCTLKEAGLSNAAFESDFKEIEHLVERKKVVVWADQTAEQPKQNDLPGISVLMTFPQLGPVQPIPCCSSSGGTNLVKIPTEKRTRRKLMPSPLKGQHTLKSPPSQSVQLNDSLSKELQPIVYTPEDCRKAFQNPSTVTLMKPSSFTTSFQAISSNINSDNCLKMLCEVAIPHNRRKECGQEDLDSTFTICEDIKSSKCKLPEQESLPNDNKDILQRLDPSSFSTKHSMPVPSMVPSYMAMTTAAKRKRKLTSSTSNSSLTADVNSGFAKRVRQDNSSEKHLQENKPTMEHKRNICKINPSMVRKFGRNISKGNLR
T1 sequence (P68363 whole entry partner): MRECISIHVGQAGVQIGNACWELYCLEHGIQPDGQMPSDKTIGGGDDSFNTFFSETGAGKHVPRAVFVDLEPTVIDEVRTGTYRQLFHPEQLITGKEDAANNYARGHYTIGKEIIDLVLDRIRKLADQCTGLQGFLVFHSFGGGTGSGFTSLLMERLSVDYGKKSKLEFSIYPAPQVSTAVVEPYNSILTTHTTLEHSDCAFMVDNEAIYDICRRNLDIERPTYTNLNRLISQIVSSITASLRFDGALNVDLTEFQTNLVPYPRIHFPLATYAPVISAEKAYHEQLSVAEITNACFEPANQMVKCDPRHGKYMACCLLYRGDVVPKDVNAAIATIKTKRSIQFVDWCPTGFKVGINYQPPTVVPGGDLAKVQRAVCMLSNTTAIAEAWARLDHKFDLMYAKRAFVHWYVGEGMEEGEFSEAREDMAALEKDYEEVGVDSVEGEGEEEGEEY
T1 sequence (Q9BVA1 whole entry partner): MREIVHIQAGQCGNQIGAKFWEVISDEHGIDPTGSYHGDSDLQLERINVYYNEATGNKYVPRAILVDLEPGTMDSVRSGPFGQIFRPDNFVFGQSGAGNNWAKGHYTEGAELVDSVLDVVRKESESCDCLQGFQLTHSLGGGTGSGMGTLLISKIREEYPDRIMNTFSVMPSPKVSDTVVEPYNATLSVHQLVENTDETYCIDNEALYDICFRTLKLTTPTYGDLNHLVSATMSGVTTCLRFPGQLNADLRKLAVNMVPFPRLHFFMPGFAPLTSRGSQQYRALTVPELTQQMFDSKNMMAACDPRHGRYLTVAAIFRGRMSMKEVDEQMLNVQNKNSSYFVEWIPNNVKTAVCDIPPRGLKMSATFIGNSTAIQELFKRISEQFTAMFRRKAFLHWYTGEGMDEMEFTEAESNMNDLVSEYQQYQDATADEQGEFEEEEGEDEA

## CCS(=O)(=O)Nc1ccc(C(=O)Nc2cc3c(c(N4CCC(F)(F)CC4)c2)OCC3)c(N2CCC3(CC2)CC3)c1 [Example 1, N-(7-(4,4-difluoropiperidin-1-yl)-2,3-dihydrobenzofuran-5-yl)-4-(ethylsulfonamido)-2-(6-azaspiro[2.5]octan-6-yl)benzamide]
[1]; 10 mg/kg, oral administration (10 mg/mL), read-out: Half-life period T½ (converted)
  half-life: 7.36 h
[1]; 10 mg/kg, oral administration (10 mg/mL), read-out: Plasma concentration Cmax
  Cmax: 12400 ng/mL
[1]; oral administration (10 mg/kg), read-out: Area under the curve AUC0-∞
  AUC(0-inf): 95200 ng·h/mL
[2]
  IC50: 52 nM
[3]
  IC50: 2.4 nM
